From the NIST ThermoML archive (doi:10.1021/je900468u)
Where “and” joins values, the source holds several entries; their conditions need not be identical. Equal values may be shown once.

Key:
[1] = 101 kPa, Liquid; for speed of sound: Pulse-echo method
[2] = refractive index (Na D-line) (dimensionless); conditions: 101.33 kPa, Liquid, Standard Abbe refractometry
[3] = xn = mol fraction of the nth substance listed; conditions: 101 kPa, Liquid; for speed of sound: Pulse-echo method
[4] = refractive index (Na D-line) (dimensionless); xn = mol fraction of the nth substance listed; conditions: 101 kPa, Liquid, Standard Abbe refractometry

c1ccccc1 [benzene]
Conditions	mass density, [1]	refractive index, [2]	speed of sound, [1] [m/s]
283.15 K	889.5 kg/m3	1.50765	1371
298.15 K	873.9 kg/m3 and 873.6 kg/m3	1.49774	1299

C1CCCCC1 [cyclohexane]
Conditions	mass density, [1] [kg/m3]	refractive index, [2]	speed of sound, [1] [m/s]
283.15 K	787.8	1.43193	1329
298.15 K	773.9	1.4236	1255

C1CCCCCCC1 [cyclooctane]
298.15 K
Conditions	mass density [kg/m3]	refractive index	speed of sound [m/s]
[1]	831.5	–	1391
[2]	–	1.45598	–

CCc1ccccc1 [ethylbenzene]
Conditions	mass density, [1] [kg/m3]	refractive index, [2]	speed of sound, [1] [m/s]
283.15 K	875.7	1.50129	1382
298.15 K	862.5	1.49304	1319

CC1CCCCC1 [methylcyclohexane]
Conditions	mass density, [1] [kg/m3]	refractive index, [2]	speed of sound, [1] [m/s]
283.15 K	777.9	1.42833	1281
298.15 K	765.1	1.42062	1215

CC1CCCCC1 [methylcyclohexane] + CCc1ccccc1
Conditions	mass density, [3] [kg/m3]	refractive index, [4]	speed of sound, [3] [m/s]
283.15 K, x1 = 0.0494	870.3	1.49728	1376
283.15 K, x1 = 0.0975	865.2	1.49353	1369
283.15 K, x1 = 0.1983	854.6	1.4855	1356
283.15 K, x1 = 0.2981	844.4	1.47786	1345
283.15 K, x1 = 0.4008	834.1	1.47018	1333
283.15 K, x1 = 0.5005	824.2	1.46281	1323
283.15 K, x1 = 0.6001	814.6	1.45566	1313
283.15 K, x1 = 0.7006	805.2	1.44856	1304
283.15 K, x1 = 0.7952	796.4	1.44194	1297
283.15 K, x1 = 0.8949	787.3	1.43542	1289
283.15 K, x1 = 0.9495	782.4	1.43163	1285
283.15 K, x1 = 1	777.9	1.42833	1281
298.15 K, x1 = 0.0494	857.2	1.48923	1312
298.15 K, x1 = 0.0975	852.1	1.48542	1305
298.15 K, x1 = 0.1983	841.5	1.47754	1292
298.15 K, x1 = 0.2981	831.2	1.46988	1280
298.15 K, x1 = 0.4008	820.9	1.46219	1268
298.15 K, x1 = 0.5005	811	1.45484	1258
298.15 K, x1 = 0.6001	801.4	1.44771	1247
298.15 K, x1 = 0.7006	791.9	1.44068	1236
298.15 K, x1 = 0.7952	783.1	1.43414	1230
298.15 K, x1 = 0.8949	774.2	1.42751	1222
298.15 K, x1 = 0.9495	769.3	1.4239	1218
298.15 K, x1 = 1	765.1	1.42062	1215

CC1CCCCC1 [methylcyclohexane] + Cc1ccccc1
Conditions	mass density, [3] [kg/m3]	refractive index, [4]	speed of sound, [3] [m/s]
283.15 K, x1 = 0.05	869.8	1.49797	1363
283.15 K, x1 = 0.0998	863.7	1.49331	1356
283.15 K, x1 = 0.198	852	1.48436	1342
283.15 K, x1 = 0.2951	841	1.47614	1330
283.15 K, x1 = 0.3968	830.3	1.46797	1320
283.15 K, x1 = 0.4959	820.3	1.46042	1311
283.15 K, x1 = 0.5973	810.7	1.45319	1302
283.15 K, x1 = 0.697	801.8	1.44643	1296
283.15 K, x1 = 0.7954	793.5	1.44018	1290
283.15 K, x1 = 0.8932	785.8	1.4342	1285
283.15 K, x1 = 0.9487	781.6	1.43118	1283
283.15 K, x1 = 1	777.9	1.42833	1281
298.15 K, x1 = 0.05	855.9	1.48937	1297
298.15 K, x1 = 0.0998	849.9	1.48481	1290
298.15 K, x1 = 0.198	838.2	1.47597	1276
298.15 K, x1 = 0.2951	827.4	1.4678	1264
298.15 K, x1 = 0.3968	816.8	1.45982	1253
298.15 K, x1 = 0.4959	806.9	1.45225	1244
298.15 K, x1 = 0.5973	797.4	1.44519	1236
298.15 K, x1 = 0.697	788.6	1.4385	1229
298.15 K, x1 = 0.7954	780.4	1.43233	1223
298.15 K, x1 = 0.8932	772.7	1.42635	1219
298.15 K, x1 = 0.9487	768.6	1.42344	1216
298.15 K, x1 = 1	765.1	1.42062	1215

CC1CCCCC1 [methylcyclohexane] + c1ccccc1
Conditions	mass density, [3] [kg/m3]	refractive index, [4]	speed of sound, [3] [m/s]
283.15 K, x1 = 0.0504	880.6	1.50135	1359
283.15 K, x1 = 0.099	872.4	1.49548	1350
283.15 K, x1 = 0.1998	856.9	1.48438	1333
283.15 K, x1 = 0.2978	843.4	1.47501	1320
283.15 K, x1 = 0.3991	830.7	1.46578	1308
283.15 K, x1 = 0.4993	819.5	1.45783	1299
283.15 K, x1 = 0.598	809.6	1.45078	1293
283.15 K, x1 = 0.6991	800.5	1.44435	1288
283.15 K, x1 = 0.7981	792.4	1.43862	1284
283.15 K, x1 = 0.8961	784.9	1.4333	1282
283.15 K, x1 = 0.9523	781	1.43058	1282
283.15 K, x1 = 1	777.9	1.42833	1281
298.15 K, x1 = 0.0504	865	1.49162	1289
298.15 K, x1 = 0.099	857.1	1.48594	1280
298.15 K, x1 = 0.1998	841.9	1.47509	1263
298.15 K, x1 = 0.2978	828.8	1.46597	1250
298.15 K, x1 = 0.3991	816.5	1.45706	1240
298.15 K, x1 = 0.4993	805.7	1.44934	1231
298.15 K, x1 = 0.598	796	1.44247	1225
298.15 K, x1 = 0.6991	787.2	1.43623	1220
298.15 K, x1 = 0.7981	779.3	1.43061	1217
298.15 K, x1 = 0.8961	772	1.42549	1216
298.15 K, x1 = 0.9523	768.2	1.42279	1215
298.15 K, x1 = 1	765.1	1.42062	1215

Cc1ccccc1 [toluene]
Conditions	mass density, [1] [kg/m3]	refractive index, [2]	speed of sound, [1] [m/s]
283.15 K	876.1	1.50278	1371
298.15 K	862.2	1.49399	1305

Cc1ccccc1 [toluene] + C1CCCCC1
x2 = 0
Conditions	mass density, [3] [kg/m3]	refractive index, [4]	speed of sound, [3] [m/s]
283.15 K	876.1	1.50278	1371
298.15 K	862.2	1.49399	1305

Cc1ccccc1 [toluene] + C1CCCCCCC1
298.15 K, x2 = 0
Conditions	mass density [kg/m3]	refractive index	speed of sound [m/s]
[3]	862.2	–	1305
[4]	–	1.49399	–

Cc1ccccc1 [toluene] + CC1CCCCC1
x2 = 0
Conditions	mass density, [3] [kg/m3]	refractive index, [4]	speed of sound, [3] [m/s]
283.15 K	876.1	1.50278	1371
298.15 K	862.2	1.49399	1305
